Legend:
glioma cell lines [1] = test: 72-hour acute cytotoxicity synergy assay in combination with regorafenib (ZIP synergy score); assay type: cell-based
Procedure: The combined inhibition of a resistance mechanism or a synthetic lethal interactor with regorafenib treatment should enhance the effect of regorafenib alone. Therefore, drugs targeting the different identified gene products were used in acute cytotoxicity synergy assays in combination with regorafenib to analyze the synergistic effect of drug combinations. Each of the 15 drugs was tested in a 72-hour acute cytotoxicity synergy assay in combination with regorafenib on six glioma cell lines in two independent runs. The calculated ZIP synergy score for each combination indicates if a combination is synergistic, the higher the score the stronger is the synergism. For the heatmaps shown in Fig. 3 the synergy scores were normalized within each cell line taking the highest synergy score detected in this cell line as 100% and a synergy score of 0 as 0%. For each target shown here identified in the CRISPR/Cas9 screens, the inventors detected a synergistic effect of the drug combination (for at least one drug when several drugs for the same target were tested).

glioma cell lines [2] = test: clonogenic survival assay; assay type: cell-based; details: combination with regorafenib vs regorafenib monotherapy
SMA560 cells = test: in vivo glioma model, intracranially transplanted SMA560 cells; details: VM/Dk mice intracranially transplanted with SMA560 cells; treated for three weeks; experiment stopped at day 120; solvent control 58 days
Procedure: For drugs targeting Bcl2 family members (navitoclax, venetoclax), MEK1/MAP2K1 (selumetinib, trametinib), integrins (cilengitide), and ARAF (sorafenib) further assays were performed to analyze the synergistic effect in combination with Regorafenib. […] The inventors extracted primary cells from glioblastoma tissue to test our drug combinations ex vivo. Analyzing the combination effect on cell viability of regorafenib and navitoclax on four glioblastoma primary cultures the observed effect of the combination treatment was in each model synergistic compared to the predicted effect calculated from both monotherapies (Figs. 4 E and F). The combination of navitoclax and regorafenib was further validated in vivo in VM/Dk mice intracranially transplanted with SMA560 cells (data not shown). The mice were treated either with the drug combination, regorafenib, or navitoclax monotherapies, or a solvent control for three weeks. Time until onset of neurological symptoms was observed. The solvent control group reached its median after 58 days, navitoclax monotherapy after 60 days, and regorafenib monotherapy after 67 days.

Structure (SMILES) | synergistic effect in acute cytotoxicity synergy assays (ZIP synergy score) (glioma cell lines [1]) | number of clones in clonogenic survival assays, combination treatment compared with regorafenib monotherapy (glioma cell lines [2]) | Time until onset of neurological symptoms (median) (SMA560 cells) [days]
CC1(C)CCC(c2ccc(Cl)cc2)=C(CN2CCN(c3ccc(C(=O)NS(=O)(=O)c4ccc(N[C@H](CCN5CCOCC5)CSc5ccccc5)c(S(=O)(=O)C(F)(F)F)c4)cc3)CC2)C1 [navitoclax] | synergistic effects | significantly reduced numbers of clones | 60
CNC(=O)c1cc(Oc2ccc(NC(=O)Nc3ccc(Cl)c(C(F)(F)F)c3)c(F)c2)ccn1 [regorafenib] | – | – | 67
CC1(C)CCC(CN2CCN(c3ccc(C(=O)NS(=O)(=O)c4ccc(NCC5CCOCC5)c([N+](=O)[O-])c4)c(Oc4cnc5[nH]ccc5c4)c3)CC2)=C(c2ccc(Cl)cc2)C1 [venetoclax] | synergistic effects | – | –

Reference: patent publication EP4527386A1, “ANTI-CANCER PHARMACEUTICAL COMPOSITION COMPRISING REGORAFENIB” (Eberhard-Karls-Universität Tübingen Universitätsklinikum, priority 2023, dated 2025)
